Measurements from the NIST ThermoML archive (doi:10.1021/acs.jced.6b00695).
Numbers after ± are expanded uncertainties. Values belong to the molecule of their own block, whether it stands above or below them.

Assay: mn = molality of the nth substance listed, in mol/kg
Conditions: for surface tension liquid-gas: Capillary rise; for viscosity / speed of sound / mass density: 100 kPa, Liquid; for viscosity: Capillary tube (Ostwald / Ubbelohde) method; for speed of sound: Sing-around technique in a fixed-path interferometer; for mass density: Vibrating tube method

surface tension liquid-gas (298.15 K, m1 = 1.27): 42.79 ± 0.7 mN/m
viscosity (298.15 K, m1 = 1.27): 2.727 ± 0.018 mPa·s
speed of sound (298.15 K, m1 = 1.27): 1607.8 ± 1.1 m/s
mass density (298.15 K, m1 = 1.27): 1127.29 ± 0.25 kg/m3
surface tension liquid-gas (303.15 K, m1 = 1.27): 42.13 ± 0.7 mN/m
viscosity (303.15 K, m1 = 1.27): 2.386 ± 0.016 mPa·s
speed of sound (303.15 K, m1 = 1.27): 1615.4 ± 1.1 m/s
mass density (303.15 K, m1 = 1.27): 1125.29 ± 0.25 kg/m3
surface tension liquid-gas (308.15 K, m1 = 1.27): 40.87 ± 0.7 mN/m
viscosity (308.15 K, m1 = 1.27): 2.085 ± 0.014 mPa·s
speed of sound (308.15 K, m1 = 1.27): 1621.8 ± 1.1 m/s
mass density (308.15 K, m1 = 1.27): 1123.11 ± 0.25 kg/m3
SMILES: OC[C@H]1O[C@@](CO)(O[C@H]2O[C@H](CO)[C@@H](O)[C@H](O)[C@H]2O)[C@@H](O)[C@@H]1O [D-sucrose] + O

surface tension liquid-gas (298.15 K, m1 = 0.005): 71.6 ± 0.69 mN/m
viscosity (298.15 K, m1 = 0.005): 0.9011 ± 0.0069 mPa·s
speed of sound (298.15 K, m1 = 0.005): 1494.6 ± 0.86 m/s
mass density (298.15 K, m1 = 0.005): 997.455 ± 0.05 kg/m3
surface tension liquid-gas (303.15 K, m1 = 0.005): 70.84 ± 0.69 mN/m
viscosity (303.15 K, m1 = 0.005): 0.8009 ± 0.0066 mPa·s
speed of sound (303.15 K, m1 = 0.005): 1504.7 ± 0.86 m/s
mass density (303.15 K, m1 = 0.005): 996.059 ± 0.045 kg/m3
surface tension liquid-gas (308.15 K, m1 = 0.005): 70.06 ± 0.69 mN/m
viscosity (308.15 K, m1 = 0.005): 0.7225 ± 0.0063 mPa·s
speed of sound (308.15 K, m1 = 0.005): 1516.2 ± 0.87 m/s
mass density (308.15 K, m1 = 0.005): 994.427 ± 0.051 kg/m3
SMILES: O=C(O)CC(O)(CC(=O)O)C(=O)O [citric acid] + O

mass density (298.15 K, m1 = 0.005): 998.006 ± 0.05 kg/m3
SMILES: [Cl][Dy]([Cl])[Cl] [dysprosium(III) chloride] + O

mass density (298.15 K, m1 = 0.005): 998.051 ± 0.05 kg/m3
SMILES: [Cl][Er]([Cl])[Cl] [erbium trichloride] + O

mass density (298.15 K, m1 = 0.005): 998.121 ± 0.05 kg/m3
SMILES: [Cl][Yb]([Cl])[Cl] [ytterbium trichloride] + O
